Results from US7714135B2, “Tetrahydropyridothiophenes for the treatment of proliferative diseases such as cancer” (4SC AG, priority 2005, dated 2010).
pIC50: −log10 of the molar value.

Experiments:
[1] = system: RKO colon adenocarcinoma cells (RKOp27) arrested by the expression of ectopic p27Kip1; assay: Alamar Blue cell viability assay on RKOp27 cells arrested by Ponasterone A-induced p27Kip1 expression (cell cycle specific mode of action); type: cell-based; details: Homo sapiens, RKOp27 subclone induced with 10 μM Ponasterone A, 72 hours incubation, read-out: IC50 RKO p27 induced (arrested)
Method: To determine the cell cycle specific mode of action, subclones of RKO colon adenocarcinoma cells (RKOp27 or RKOp21 as described by Schmidt et al. in Oncogene 19, 2423-2429; 2000) are seeded into 96 well flat bottom plates at a density of 16000 cells per well in a volume of 50 μl per well in DMEM growth medium with 10% FCS containing 10 μM Ponasterone A. 24 hours after seeding the 50 μl each of the compound dilutions in DMEM medium are added into each well of the 96 Well plate. Each compound dilution is tested as quadruplicates. Wells containing untreated control cells are filled with 50 μl DMEM medium containing 1% DMSO. The cells are then incubated with the substances for 72 hours at 37° C. in a humidified atmosphere containing 5% carbon dioxide. To determine the viability of the cells, 10 μl of an Alamar Blue solution (Biosource) are added and the fluorescence was measured at an extinction of 544 nm and an emission of 590 nm. For the calculation of the cell viability the emission value from untreated cells is set as 100% viability and the emission rates of treated cells are set in relation to the values of untreated cells. Viabilities are expressed as % values. Viability is compared of proliferating cells grown in the absence of the inducer Ponasterone A, versus viability of cells arrested by the expression of ectopic p27Kip1 induced by Ponasterone A.

[2] = system: RKO (RKOp27) human colon adenocarcinoma cells; assay: Alamar Blue cell viability assay, anti-proliferative/cytotoxic activity on proliferating (uninduced) RKOp27 cells; type: cell-based; details: RKOp27 subclone without inducer, 72 hours incubation, read-out: IC50 RKO p27 uninduced (proliferating)
Method: The anti-proliferative/cytotoxic activity of the compounds described herein, can be tested on subclones of RKO (RKOp27) human colon adenocarcinoma cells (Schmidt et al., Oncogene 19, 2423-2429; 2000) using the Alamar Blue cell viability assay (described in O'Brien et al. Eur J Biochem 267, 5421-5426, 2000). The compounds are dissolved as 20 mM solutions in dimethylsulfoxide (DMSO) and subsequently diluted in semi-logarithmic steps. DMSO dilutions are further diluted 1:100 into Dulbecco's modified Eagle's medium (DMEM) containing 10% fetal calf serum to a final concentration twice as much as the final concentration in the test. RKO subclones are seeded into 96 well flat bottom plates at a density of 4000 cells per well in a volume of 50 μl per well. 24 hours after seeding the 50 μl each of the compound dilutions in DMEM medium are added into each well of the 96 Well plate. Each compound dilution is tested as quadruplicates. Wells containing untreated control cells are filled with 50 μl DMEM medium containing 1% DMSO. The cells are then incubated with the substances for 72 hours at 37° C. in a humidified atmosphere containing 5% carbon dioxide. To determine the viability of the cells, 10 μl of an Alamar Blue solution (Biosource) are added and the fluorescence is measured at an extinction of 544 nm and an emission of 590 nm. For the calculation of the cell viability the emission value from untreated cells is set as 100% viability and the emission rates of treated cells are set in relation to the values of untreated cells. Viabilities are expressed as % values.
The corresponding IC50 values of the compounds for anti-proliferative/cytotoxic activity are determined from the concentration-effect curves.
Representative IC50 values for anti-proliferation/cytotoxicity determined in the mentioned assay follow from the following table A, in which the numbers of the compound correspond to the numbers of the examples.

Row | SMILES | pIC50 [1] | pIC50 [2]
1 | N#Cc1c(NC(=O)CCc2ccccc2)sc2c1CCN(C(=O)OCCN1CCOCC1)C2 [Example 50, 3-Cyano-2-(3-phenyl-propanoylamino)-4,7-dihydro-5H-thieno[2,3-c]pyridine-6-carboxylic acid 2-morpholin-4-yl-ethyl ester] | < 4.00 | ≥ 6.52
2 | N#Cc1c(NC(=O)CCc2ccco2)sc2c1CCN(C(=O)OCCN1CCOCC1)C2 [Example 51, 3-Cyano-2-(3-furan-2-yl-propanoylamino)-4,7-dihydro-5H-thieno[2,3-c]pyridine-6-carboxylic acid 2-morpholin-4-yl-ethyl ester] | < 4.00 | ≥ 6.52
3 | N#Cc1c(NC(=O)CCc2ccccc2)sc2c1CCN(C(=O)OCCn1ccnc1)C2 [Example 54, 3-Cyano-2-(3-phenyl-propanoylamino)-4,7-dihydro-5H-thieno[2,3-c]pyridine-6-carboxylic acid 2-imidazol-1-yl-ethyl ester] | < 4.00 | ≥ 6.52
4 | N#Cc1c(NC(=O)CCc2ccccn2)sc2c1CCN(C(=O)OCCc1cccnc1)C2 [Example 107, 3-Cyano-2-(3-pyridin-2-yl-propanoylamino)-4,7-dihydro-5H-thieno[2,3-c]pyridine-6-carboxylic acid 2-pyridin-3-yl-ethyl ester] | < 4.00 | 5.70 to 6.52

The next lines start with results.

Row | pIC50 [1] | SMILES | pIC50 [2]
5 | < 4.00 | CCOC(=O)N1CCc2c(sc(NC(=O)CC(C)(C)c3ccccc3)c2C#N)C1 [Example 47, 3-Cyano-2-(3-methyl-3-phenyl-butanoylamino)-4,7-dihydro-5H-thieno[2,3-c]pyridine-6-carboxylic acid ethyl ester] | ≥ 6.52
6 | < 4.00 | CCOC(=O)N1CCc2c(sc(NC(=O)C3CC3c3ccco3)c2C#N)C1 (centres unmarked) [Example 48, 3-Cyano-2-{[1-(2-furan-2-yl-cyclopropyl)-methanoyl]-amino}-4,7-dihydro-5H-thieno[2,3-c]pyridine-6-carboxylic acid ethyl ester] | ≥ 6.52
7 | < 4.00 | N#Cc1c(NC(=O)CCc2ccco2)sc2c1CCN(C(=O)OCCO)C2 [Example 55, 3-Cyano-2-(3-furan-2-yl-propanoylamino)-4,7-dihydro-5H-thieno[2,3-c]pyridine-6-carboxylic acid 2-hydroxy-ethyl ester] | ≥ 6.52
